“Also recorded” adds a separate entry of the source.
Assays:
heavy tobacco smokers = experiment: Pilot clinical study in heavy tobacco smokers; type: in vivo, human
Experimental: Data were recorded for two months, during which patients were seen by the physician every other week. Patients were instructed to record in a personal logbook the number of cigarettes per day and the time of the day smoking occurred. At the end of the study, the logbooks were returned to the clinical personnel who analyzed the data. […] During the first month of treatment, every two weeks, ACTH and cortisol levels were also monitored to evaluate HPA activation before and during treatment.

Wistar rats [1] = experiment: FR5 cocaine self-administration; type: in vivo, rat; conditions: pioglitazone both 10.0 and 30.0 mg/kg OS 12 hours and 1 hour before session
Experimental: […]. Drug or vehicle solution was infused at a volume of 0.1 ml over 4 s.
Male Wistar rats weighing between 180 and 200 g at the time of arrival in the lab were used. The rats were housed in groups of three in a humidity- and temperature-controlled (22° C.) vivarium on a 12 h: 12 h reverse light/dark cycle (on, 17:00; off, 05:00) with ad libitum access to food and water. One week after arrival, rats were subjected to surgery, and a silastic catheter was implanted into the right jugular vein.
Cocaine self-administration training continued until a stable baseline of responding was reached (less than 10% variation for 3 consecutive days calculated for each single rat). At this point, drug testing begun.
. […] A 3-day interval was allowed between drug testing. During these intervals, cocaine self-administration was continued to re-establish baseline lever responses.

Wistar rats [2] = experiment: Acquisition of heroin self-administration (FR1); type: in vivo, rat
[3] = tested on: Marchigian Sardinian alcohol-preferring (msP) rats; experiment: Subchronic (7 days) voluntary ethanol intake, 10% alcohol available 24 hours/day; type: in vivo, rat
Experimental: (§1) At the beginning of the experiments, msP rats were allowed free choice between water and 10% (v/v) alcohol 24 h/day for at least 15 days. The fluids were offered in graduated drinking tubes equipped with metallic drinking spouts. The position (to the right or left) of alcohol and water drinking tubes was changed daily to avoid the development of side preference. Water and food were available ad libitum, while alcohol access was either restricted to 2 hours/day (Examples 1 and 2) or was available 24 hours/day (Examples 3 and 4). Alcohol, water and food intakes were measured.
(§2) […]. Before starting the treatment, rats were trained to gavage administration procedures for three days, during which they received vehicle (distilled water).
Alcohol, water and food intakes were monitored at 2, 8 and 24 hours. Fluids and food intakes were monitored for three additional days after the end of the drug treatment period.
[…]. According to a between-subject design, four groups of msP rats (N=9/group) were prepared as described in Example 3. […] […]. Alcohol, water and food intakes were monitored at 2, 8 and 24 hours. Fluids and food intakes were monitored for three additional days after the end of the drug treatment period.

msP rats [4] = experiment: Yohimbine-induced (stress) reinstatement of alcohol seeking
Source text: Stress-induced reinstatement of alcohol-seeking experimental procedures consisted of three phases: (1) training phase; (2) extinction phase; and (3) reinstatement phase, as described below.
For the training phase, after completion of the fading procedure, msP rats were trained to self-administer 10% (v/v) alcohol for 15 days in 30-min daily sessions under a FR1 schedule of reinforcement. During the infusion, a stimulus house light was turned on for 5 s (time out; TO).
For the extinction phase, after the last alcohol self-administration session, animals were subjected to 30-min extinction sessions for 15 consecutive days.
The day after the last extinction session, rats were subjected to the reinstatement test.
Animals received all drug treatments according to a counterbalance Latin square design. A 3-day interval, during which animals were subjected to extinction sessions, was allowed between drug tests.

[5] = Young, Buckle et al. 1998; Breidert et al. 2002; cited from earlier work
msP rats [6] = experiment: Cue-induced reinstatement of alcohol seeking; type: in vivo, rat; conditions: pioglitazone 10.0, 30.0 mg/kg at 12 hours and 1 hour before test
Experimental: Cue-induced reinstatement of alcohol-seeking behaviour experimental procedures consisted of three phases: (1) conditioning phase; (2) extinction phase; and (3) reinstatement phase, as described below.
For the conditioning phase, at the completion of the fading procedure (see above), in 30 min daily sessions, animals were trained to discriminate between 10% alcohol and water. Beginning with self-administration training at the 10% alcohol concentration, discriminative stimuli (SD) predictive of alcohol versus water availability were presented during the alcohol and water self-administration sessions, respectively. The discriminative stimulus for alcohol consisted of the odour of an orange extract (S^+) whereas water availability (i.e. no reward) was signalled by an anise extract (S^−). The olfactory stimuli were generated by depositing six to eight drops of the respective extract into the bedding of the operant chamber. In addition, each lever-press resulting in delivery of alcohol was paired with illumination of the chamber's house light for 5 sec (CS^+). The corresponding cue during water sessions was a 5 second tone (70 dB) (CS). Concurrently with the presentation of these stimuli, a 5 sec. time-out period was in effect, during which responses were recorded but not reinforced. The olfactory stimuli serving as S^+ or S^− for alcohol availability were introduced one minute before extension of the levers and remained present throughout the 30-min. sessions. The bedding of the chamber was changed and bedding trays were cleaned between sessions. During the first three days of the conditioning phase, the rats were given alcohol sessions only. Subsequently, alcohol and water sessions were conducted in random order across training days, with the constraint that all rats received a total of 10 alcohol and 10 water sessions.
For the extinction phase, after the last conditioning day, rats were subjected to 30-min extinction sessions for 15 consecutive days. During this phase, sessions began by extension of the levers without presentation of the SD. […]

[7] = tested on: Marchigian Sardinian alcohol-preferring (msP) rats; experiment: Acute voluntary ethanol intake, alcohol access restricted to 2 hours/day; type: in vivo, rat
Experimental: as §1
. After acquisition of a stable baseline of ethanol intake (6-8 g/kg bw; daily), alcohol access was restricted to 2 hours a day at the beginning of the dark phase. Water and food were freely available.
as §2
Treatments were carried out at intervals of at least three days. […] Drinking experiments were conducted right at the beginning of the dark cycle. Alcohol, water and food intakes were monitored at 30, 60, 90 and 120 minutes after ethanol was made available.
The msP rats (n=8) were prepared for the study as described in Example 1. After acquisition of a stable baseline of ethanol intake, alcohol access was restricted to 2 hours a day at the beginning of the dark phase. Water and food were freely available. […]. The experiment was conducted using a within subject counterbalanced Latine square design where each animal received all drug doses.
These experiments were conducted at the beginning of the dark cycle and alcohol, and water and food intakes were monitored at 30, 60, 90 and 120 minutes after ethanol was made available.

Long Evans rats = experiment: Yohimbine-induced reinstatement of nicotine seeking; type: in vivo, rat; conditions: pioglitazone all doses tested (5.0, 10.0 and 30.0 mg/kg), 12 and 1 hour before test
Experimental: Stress and anxiety are major factors in resuming nicotine use in former abstinent users. […] Reinstatement experiments and relative drug treatments were performed every third day. Between reinstatements, extinction baseline was re-established.

[8] = pioglitazone 30 mg/kg OS at 12 hours and 1 hour before access to ethanol

CCc1ccc(CCOc2ccc(CC3SC(=O)NC3=O)cc2)nc1.Cl (centres unmarked) [pioglitazone]
weekly smoked cigarettes, pioglitazone versus varenicline (post hoc) (heavy tobacco smokers; human, in vivo): no significant differences
craving score (visual analogic craving scale) (heavy tobacco smokers; over treatment): highest reduction
STAI anxiety score (heavy tobacco smokers; over treatment weeks): significantly reduced
weekly smoked cigarettes compared to bupropione (post hoc) (heavy tobacco smokers; p<0.05): significant difference
subjects reaching complete abstinence (heavy tobacco smokers; pioglitazone 4 patients, varenicline 3 patients): One
cocaine self-administration (Wistar rats [1]): significant (p<0.01) reduction
heroin self-administration versus control, day 3 to day 8 (Wistar rats [2]; pioglitazone 30 mg/kg twice daily): significant difference
acquisition of heroin self-administration (Wistar rats [2]; pioglitazone 30 mg/kg twice daily (12 hours and 1 hour prior to session)): significantly decreased
voluntary ethanol intake, overall ([3]; pioglitazone 10.0 or 30.0 mg/kg OS twice a day for 7 days): significantly reduced
ethanol intake starting from the 4th day of treatment ([3]; pioglitazone both doses (10 and 30 mg/kg)): significantly reduced
ethanol intake, onset of effect ([3]; pioglitazone highest dose (30 mg/kg), 7 days): appeared from the first day of treatment
yohimbine-induced reinstatement of alcohol seeking (active lever) (msP rats [4]; pioglitazone 10 mg/kg OS at 12 hours and 1 hour before test): clear trend (p=0.07) to an inhibition
yohimbine-induced reinstatement of alcohol seeking (active lever) (msP rats [4]; pioglitazone 30 mg/kg OS at 12 hours and 1 hour before test, p<0.01): significant inhibition
effect of yohimbine on reinstatement of responding, overall (msP rats [4]; pre-treatment with pioglitazone 10.0 and 30.0 mg/kg): significantly reduced; also recorded: markedly reduced
crossing of the blood brain barrier compared with rosiglitazone [5]: crosses the blood brain barrier more easily
cue-induced (conditioned) reinstatement of alcohol-seeking (msP rats [6]): not significantly modified; also recorded: lack of effect
ethanol consumption at 30, 60, or 90 minutes [7, 8]: not at 30, 60, or 90 minutes
ethanol consumption at 2 hours [7, 8]: significantly reduced
ethanol intake, overall treatment effect (ANOVA) ([7]; pioglitazone 10.0, 30.0 mg/kg OS): absence of a significant treatment effect
yohimbine-induced reinstatement of nicotine seeking (Long Evans rats): prevented; also recorded: significantly (p<0.001) decreased
